Measurements as given in ChEMBL document CHEMBL6103585, “Construction and activity evaluation of novel CHS inhibitors against fungal infections” (Eur J Med Chem, 2025).
pIC50, pKd: −log10 of the molar value. Values after ≈ are worked out from the molar mass of the structure shown. Active and inactive are the calls of the source. No cut-off for these calls is given here.

What was measured:
[1] = test system: Candida albicans; assay: (§1) In vivo antifungal activity against Candida albicans 901 infected in mouse model assessed as decrease in IFN-gamma protein expression level at 5 microg/g, iv pre-infected with fungi by intravenous injection followed by compound administration and measured on day 8 in presence of BPE by Western blotting analysis; format: functional, organism-based; settings: dose 5.0 µg/g, time 8.0 day
[2] = test system: Candida albicans; assay: Antifungal activity against fluconazole-resistant Candida albicans 904 assessed as reduction in fungal growth incubated for 72 hrs by broth microdilution method; format: functional
[3] = test system: Cryptococcus neoformans; assay: Antifungal activity against Cryptococcus neoformans ZKCC 2209 assessed as fungal growth inhibition incubated for 72 hrs by broth microdilution method; format: functional
[4] = Toxicity in mouse infected with Candida albicans 901 assessed as change in CRE level in presence of 1-MT (reference value: 21.5 +/-1.7 umol/L); settings: in vivo
[5] = test system: Candida albicans; assay: Antifungal activity against Candida albicans ATCC SC5314 assessed as fungal growth inhibition incubated for 72 hrs by broth microdilution method; format: functional
[6] = test system: A549; assay: Cytotoxicity against human A549 cells incubated for 24 hrs by CCK8 assay; format: functional, cell-based; settings: A549, 24 h
[7] = test system: Candida albicans; assay: Antifungal activity against fluconazole-resistant Candida albicans 901 assessed as reduction in fungal growth incubated for 72 hrs by broth microdilution method; format: functional
[8] = test system: HeLa; assay: Cytotoxicity against human HeLa cells incubated for 24 hrs by CCK8 assay; format: functional, cell-based
[9] = test system: Nakaseomyces glabratus; assay: Antifungal activity against Candida glabrata assessed as fungal growth inhibition incubated for 72 hrs by broth microdilution method; format: functional
[10] = test system: Candida albicans; assay: Antifungal activity against fluconazole-resistant Candida albicans 17# assessed as reduction in fungal growth incubated for 72 hrs by broth microdilution method; format: functional
[11] = test system: Candida albicans; assay: In vivo antifungal activity against Candida albicans 901 infected in mouse model assessed as decrease in IFN-gamma protein expression level at 5 microg/g, iv pre-infected with fungi by intravenous injection followed by compound administration and measured on day 8 by Western blotting analysis; format: functional, organism-based; settings: dose 5.0 µg/g, time 8.0 day
[12] = test system: Candida albicans; assay: Antifungal activity against fluconazole-resistant Candida albicans CaR assessed as reduction in fungal growth incubated for 72 hrs by broth microdilution method; format: functional
[13] = Toxicity in mouse infected with Candida albicans 901 assessed as change in BUN level in presence of 1-MT (reference value: 11.4 +/-1.5 mmol/L); settings: in vivo
[14] = test system: Candida albicans; assay: (§2) In vivo antifungal activity against Candida albicans 901 infected in mouse model assessed as body weight gain at 5 microg/g, iv pre-infected with fungi by intravenous injection followed by compound administration and measured on day 8 in presence of 1-MT; format: functional, organism-based; settings: dose 5.0 µg/g, time 8.0 day
[15] = test system: Candida albicans; assay: In vivo antifungal activity against Candida albicans 901 infected in mouse model assessed as increase in CD4positive expression level in presence of 1-MT; format: functional, organism-based
[16] = Inhibition of chitin synthase extracted from Candida tropicalis ATCC 1369 using UDP-GlcNAc as substrate incubated for 1 hrs
[17] = Toxicity in mouse infected with Candida albicans 901 assessed as change in AST level in presence of 1-MT (reference value: 76.1 +/-4.2 IU/L); settings: in vivo
[18] = test system: Candida albicans; assay: (§3) In vivo antifungal activity against Candida albicans 901 infected in mouse model assessed as decrease in IDO protein expression level at 5 microg/g, iv pre-infected with fungi by intravenous injection followed by compound administration and measured on day 8 by Western blotting analysis; format: functional, organism-based; settings: dose 5.0 µg/g, time 8.0 day
[19] = Toxicity in mouse infected with Candida albicans 901 assessed as change in CRE level in presence of BPE (reference value: 21.5 +/-1.7 umol/L); settings: in vivo
[20] = Toxicity in mouse infected with Candida albicans 901 assessed as change in CRE level (reference value: 21.5 +/-1.7 umol/L); settings: in vivo
[21] = Toxicity in mouse infected with Candida albicans 901 assessed as change in BUN level (reference value: 11.4 +/-1.5 mmol/L); settings: in vivo
[22] = test system: Candida albicans; assay: as §1, with “PD-L1” for “IFN-gamma”, “1-MT” for “BPE”; format: functional, organism-based; settings: dose 5.0 µg/g, time 8.0 day
[23] = test system: Candida albicans; assay: Induction of ROS generation in Candida albicans ATCC SC5314 assessed as increase in fluorescence intensity incubated for 12 hrs by fluorescence microscopic analysis; format: functional, organism-based
[24] = Toxicity in mouse infected with Candida albicans 901 assessed as change in ALT level in presence of 1-MT (reference value: 42.8 +/-3.9 IU/L); settings: in vivo
[25] = test system: Candida albicans; assay: as §1, with “IL-2” for “IFN-gamma”, “1-MT” for “BPE”; format: functional, organism-based; settings: dose 5.0 µg/g, time 8.0 day
[26] = test system: Candida albicans; assay: Induction of apoptosis in Candida albicans ATCC SC5314 assessed as late apoptotic cells by V-FITC/PI staining based flow cytometric analysis (reference value: 0.40%); format: functional
[27] = test system: Candida albicans; assay: as §2, with “reduction in genetic material content in lung” for “body weight gain”, “BPE by H and E staining based analysis” for “1-MT”; format: functional, organism-based; settings: dose 5.0 µg/g, time 8.0 day
[28] = test system: Candida tropicalis; assay: Antifungal activity against Candida tropicalis ATCC 1369 assessed as fungal growth inhibition incubated for 72 hrs by broth microdilution method; format: functional
[29] = Binding affinity to chitin synthase (unknown origin) assessed as dissociation constant by SPR analysis
[30] = Toxicity in mouse infected with Candida albicans 901 assessed as change in AST level in presence of BPE (reference value: 76.1 +/-4.2 IU/L); settings: in vivo
[31] = test system: Candida albicans; assay: as §2, with “reduction in genetic material content in lung” for “body weight gain”, “1-MT by H and E staining based analysis” for “1-MT”; format: functional, organism-based; settings: dose 5.0 µg/g, time 8.0 day
[32] = test system: Candida albicans; assay: Fungicidal activity against Candida albicans ATCC SC5314 assessed as live cells (reference value: 92%); format: functional
[33] = test system: Candida albicans; assay: (§4) In vivo antifungal activity against Candida albicans 901 infected in mouse model assessed as reduction in genetic material content in lung at 5 microg/g, iv pre-infected with fungi by intravenous injection followed by compound administration and measured on day 8 by H and E staining based analysis; format: functional, organism-based; settings: dose 5.0 µg/g, time 8.0 day
[34] = Toxicity in mouse infected with Candida albicans 901 assessed as change in AST level (reference value: 76.1 +/-4.2 IU/L); settings: in vivo
[35] = test system: Candida albicans; assay: In vivo antifungal activity against Candida albicans 901 infected in mouse model assessed as body weight gain at 5 microg/g, iv pre-infected with fungi by intravenous injection followed by compound administration and measured on day 8; format: functional, organism-based; settings: dose 5.0 µg/g, time 8.0 day
[36] = test system: Candida albicans; assay: In vivo antifungal activity against Candida albicans 901 infected in mouse model assessed as body weight gain at 5 microg/g, iv pre-infected with fungi by intravenous injection followed by compound administration and measured on day 8 in presence of BPE; format: functional, organism-based; settings: dose 5.0 µg/g, time 8.0 day
[37] = test system: Candida albicans; assay: as §4, with “recovery of alveolar structures to normal state” for “reduction in genetic material content”, “8 in presence of 1-MT” for “8”; format: functional, organism-based; settings: dose 5.0 µg/g, time 8.0 day
[38] = test system: Candida albicans; assay: as §3, with “8 in presence of 1-MT” for “8”; format: functional, organism-based; settings: dose 5.0 µg/g, time 8.0 day
[39] = test system: Candida albicans; assay: as §4, with “recovery of alveolar structures to normal state” for “reduction in genetic material content”, “8 in presence of BPE” for “8”; format: functional, organism-based; settings: dose 5.0 µg/g, time 8.0 day

Q: With `O=C(CNC(=O)c1nc2ccc(Cl)cc2c(=O)[nH]1)NCC(=O)c1ccccc1` as the compound, how does the Activity [1] read?
A: Its Activity is “Active”.

Q: What about the MIC50 [2] of the same compound?
A: The MIC50 was 4 µg/mL (≈ 10 µM).

Q: And the MIC50 [3]?
A: Its MIC50 is 1 µg/mL (≈ 2.51 µM).

Q: And the Activity [4]?
A: The Activity was 20.8 µmol/L.

Q: And the MIC50 [5]?
A: Its MIC50 is 1 µg/mL (≈ 2.51 µM).

Q: And the pIC50 [6]?
A: Its pIC50 is under 4.30.

Q: What about the MIC50 [7] of the same compound?
A: Its MIC50 is 4 µg/mL (≈ 10 µM).

Q: And the pIC50 [8]?
A: Its pIC50 is under 4.30.

Q: What about the MIC50 [9] of the same compound?
A: Its MIC50 is 2 µg/mL (≈ 5.01 µM).

Q: What about the MIC50 [10] of the same compound?
A: The MIC50 was 4 µg/mL (≈ 10 µM).

Q: And the Activity [11]?
A: The Activity was “Active”.

Q: What about the MIC50 [12] of the same compound?
A: The MIC50 was 2 µg/mL (≈ 5.01 µM).

Q: And the Activity [13]?
A: The Activity was 10.3 mmol/L.

Q: And the Activity [14]?
A: The Activity was “Active”.

Q: And the Activity [15]?
A: Its Activity is “Active”.

Q: And the pIC50 [16]?
A: The pIC50 was 4.83.

Q: And the Activity [17]?
A: The Activity was 74.6 IU/L.

Q: And the Activity [18]?
A: The Activity was “Active”.

Q: What about the Activity [19] of the same compound?
A: Its Activity is 16.3 µmol/L.

Q: And the Activity [20]?
A: Its Activity is 18.7 µmol/L.

Q: What about the Activity [21] of the same compound?
A: Its Activity is 8.2 mmol/L.

Q: What about the Activity [22] of the same compound?
A: Its Activity is “Active”.

Q: And the Activity [23]?
A: Its Activity is “Active”.

Q: And the Activity [24]?
A: Its Activity is 40.2 IU/L.

Q: What about the Activity [25] of the same compound?
A: Its Activity is “Active”.

Q: What about the Activity [26] of the same compound?
A: Its Activity is 12.1%.

Q: And the Activity [27]?
A: The Activity was “Active”.

Q: And the MIC50 [28]?
A: The MIC50 was 0.5 µg/mL (≈ 1.25 µM).

Q: What about the pKd [29] of the same compound?
A: The pKd was 8.12.

Q: What about the Activity [30] of the same compound?
A: Its Activity is 70.4 IU/L.

Q: And the Activity [31]?
A: Its Activity is “Active”.

Q: And the Activity [32]?
A: The Activity was 3%.

Q: And the Activity [33]?
A: Its Activity is “Active”.

Q: What about the Activity [34] of the same compound?
A: The Activity was 63.9 IU/L.

Q: And the Activity [35]?
A: The Activity was “Active”.

Q: What about the Activity [36] of the same compound?
A: Its Activity is “Active”.

Q: What about the Activity [37] of the same compound?
A: Its Activity is “Active”.

Q: What about the Activity [38] of the same compound?
A: Its Activity is “Active”.

Q: What about the Activity [39] of the same compound?
A: The Activity was “Active”.
